Converted amounts (≈) assume the structure as drawn. Read-outs that look alike come from different tables or passages of the source.
Columns and labels:
E. coli UT189 = test: Efficacy in a murine model of urinary tract infection (microbial burden in urine, bladder, kidney); assay type: in vivo; details: mouse UTI
Experimental: All animal studies were performed under UK Home Office License PA67E0BAA (protocol E9 for UTI model) with local ethical committee clearance. All studies were performed by technicians who have completed parts A, B and C of the UK Home Office Personal License course and hold current personal licenses. All experiments were performed in dedicated Biohazard 2 facilities (the site holds a Certificate of Designation). Female mice used in these studies were supplied by Janvier laboratories and were specific pathogen free. The strain of mouse used was C3H/HeNRj, which is a well characterized inbred strain. Mice were 16-20 g on receipt and were allowed to acclimatize for at least 7 days prior to any intervention. Five days prior to infection mice were transferred onto drinking water containing 5% glucose. […] It was stored at 4° C. between doses. Test articles were prepared by solubilising in water for injection, taking the salt correction factor into account. […] Mice (n=6 per group) were infected by directly administering 0.05 mL of inoculum via the urethra into the bladder under parenteral anaesthesia. Drinking water was withheld two hours pre-infection and bladders were emptied prior to infection. Once infected, infection catheters were left in the urinary tract for 10 minutes to reduce the risk of the organism flowing back out. The mice were monitored at a frequency appropriate for their clinical condition. Mouse weights were recorded at least once daily both to ensure animals remained within ethical limits and to monitor efficacy of treatment. Twenty-four hours post infection, urine was collected from pre-treatment animals and used to assess the infection level. Urine samples were quantitatively cultured onto MacConkey's agar plates and incubated at 37° C. for 24 hours before colonies were counted. In addition, five mice were euthanised by pentobarbitone overdose to provide a 24 hour pre-treatment control group. Forty-eight hours post-infection, urine was collected from all mice. Seventy-two hours post infection, the clinical condition and body weight of all remaining animals was assessed and urine samples were collected. Animals were then euthanised by pentobarbitone overdose and kidneys and bladders were removed and weighed. Tissue samples were homogenized using a Precellys 24 dual bead beater in 2 mL ice cold sterile phosphate buffered saline. Homogenates and urine samples were quantitatively cultured onto MacConkey's agar plates and incubated at 37° C. for 24 hours before colonies were counted. Data Analysis The data from the culture burdens were analysed using appropriate non-parametric statistical models (Kruskal-Wallis using Conover-Inman to make all pairwise comparisons between groups) with StatsDirect software, and compared to pretreatment and vehicle controls.

[1] = molecular target: Isoleucyl-tRNA synthetase (IleRS) (Escherichia coli (strain K12), UniProt P00956); test: Isoleucyl-tRNA synthetase enzyme inhibition (AMP-Glo; single point % inhibition at 100 μM and IC50); assay type: biochemical; details: E. coli IleRS; read-out: Enzyme Inhibition - IC50, E. coli IleRS
Description: Study 1—Enzyme Inhibition
The aminoacylation reaction catalyzed by aminoacyl-tRNA synthetases (aaRS) takes place in two steps. In the first step, aaRS activates its cognate amino acid with ATP; and in the second step the activated amino acid is loaded to its corresponding tRNA. This reaction can be summarized as follows: aaRS+aa+ATP=aaRS-aa-AMP+PPi aaRS-aa-AMP+tRNA=aa-tRNA+AMP+aaRS […]
wherein: aaRS, aminoacyl-tRNA synthetase; aa, amino acid; aaRS-aa-AMP, enzyme-bound to aminoacyl-adenylate; AMP, adenosine monophosphate; aa-tRNA, aminoacyl-tRNA, PPi, inorganic pyrophosphate.
Isoleucyl-tRNA Synthetase a. Single Point Percentage Inhibition
The activity of the pathogenic aaRSs was monitored by measuring AMP production using the commercial kit AMP-Glo (Promega, Madison, USA).
Ligand stock solutions were prepared in 100% DMSO at 10 mM concentration. An assay buffer consisting of 100 mM Tris HCl pH 7.6, 40 mM MgCl, 20 mM KCl and 150 mM NaCl was prepared in dH2O. An enzyme solution containing 51.77 μM IleRS was prepared in assay buffer to provide 30 nM final assay concentration and 75 nM reservoir concentration for a 1:2.5 dilution in the assay. A substrate solution was also prepared in assay buffer with 50 mM L-isoleucine, 10 mM ATP and 100 mg/mL tRNA. A final assay concentration of 500 μM L-isoleucine, 5 μM ATP and 1 mg/mL tRNA and reservoir concentration of 833.33 μM L-isoleucine, 8.33 μM ATP and 1.67 mg/mL tRNA was used for a 1:1.66 dilution in assay.
Enzyme percentage inhibition values were recorded in triplicate at a single point concentration of 100 μM.
Using the same enzymatic assay in a 384-well plate format, ten point concentration response curves were generated for each compound using a top concentration of 100 μM. The known inhibitor, IleAMS was used as a positive control for the IleRS assay. 100% DMSO was used as a negative control. The IC50 was calculated based on non-linear regression analysis.

[2] = system: bacteria (ATCC reference strains); test: Antibacterial activity, MIC by broth micro-dilution (CLSI)
[3] = Human cell viability / cytotoxicity (CellTiter-Glo, 24 hours); assay type: cell-based; details: human, HepG2 cells (ATCC HB-8065); HepG2 ATCC HB-8065, 24 hours; read-out: Cytotoxicity in HepG2 ATCC HB-8065 Cell Line, IC50
Outline: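 HepG2 cells (15,000/well, MEM with 1% NEAA and 1% pyruvate) were grown 2 days, then exposed to compounds in duplicate for 24 h at 1.28% DMSO. Viability was read as ATP by CellTiter-Glo luminescence relative to DMSO-only wells. IC50 is in μg/mL.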

E. coli ATCC 25922 = test: Efficacy in a murine model of disseminated infection (microbial burden in blood, kidney, spleen); assay type: in vivo; details: mouse, harvest 5 hr
[4] = molecular target: Leucyl-tRNA synthetase (LeuRS) (Escherichia coli (strain K12), UniProt P07813); test: Leucyl-tRNA synthetase enzyme inhibition (AMP-Glo; single point % inhibition at 100 μM and IC50); assay type: biochemical
[5] = Experiment 2, 10 mg/kg/dose iv at 24, 36, 48 and 60 hr
[6] = Acinetobacter baumannii, read-out: Antibacterial Activity (MIC), E = A. baumannii B1931
[7] = Enterobacter cloacae, read-out: Antibacterial Activity (MIC), B = Enterobacter cloacae B1966
[8] = Escherichia coli, ATCC25922, read-out: Antibacterial Activity (MIC), A = E. coli ATCC 25922
[9] = Haemophilus influenzae, ATCC49247, read-out: Antibacterial Activity (MIC), F = H. influenzae ATCC 49247
[10] = Klebsiella pneumoniae, ATCC700603, read-out: Antibacterial Activity (MIC), C = K. pneumoniae ATCC 700603
[11] = Pseudomonas aeruginosa, ATCC27853, read-out: Antibacterial Activity (MIC), D = P. aeruginosa ATCC 27853
[12] = 30 mg/kg sc once at 1 hr post-infection
[13] = 1.875 mg/kg/dose sc 1 and 3 hr post-infection
[14] = 7.5 mg/kg/dose po 1 and 3 hr post-infection
[15] = 7.5 mg/kg/dose sc 1 and 3 hr post-infection
[16] = 30 mg/kg/dose po 1 and 3 hr post-infection
[17] = 30 mg/kg/dose sc 1 and 3 hr post-infection
[18] = Escherichia coli, BAA2469, read-out: Antibacterial Activity (MIC), G = E. coli BAA-2469
[19] = Experiment 1, 5 mg/kg/dose sc every 4 hours
[20] = Experiment 1, 15 mg/kg/dose sc every 4 hours
[21] = Experiment 1, 45 mg/kg/dose sc every 4 hours
[22] = Experiment 2, 15 mg/kg/dose sc every 4 hours
[23] = Experiment 2, 45 mg/kg/dose sc every 4 hours

Leucyl-tRNA synthetase (LeuRS), sequence (P07813 whole entry, looked up): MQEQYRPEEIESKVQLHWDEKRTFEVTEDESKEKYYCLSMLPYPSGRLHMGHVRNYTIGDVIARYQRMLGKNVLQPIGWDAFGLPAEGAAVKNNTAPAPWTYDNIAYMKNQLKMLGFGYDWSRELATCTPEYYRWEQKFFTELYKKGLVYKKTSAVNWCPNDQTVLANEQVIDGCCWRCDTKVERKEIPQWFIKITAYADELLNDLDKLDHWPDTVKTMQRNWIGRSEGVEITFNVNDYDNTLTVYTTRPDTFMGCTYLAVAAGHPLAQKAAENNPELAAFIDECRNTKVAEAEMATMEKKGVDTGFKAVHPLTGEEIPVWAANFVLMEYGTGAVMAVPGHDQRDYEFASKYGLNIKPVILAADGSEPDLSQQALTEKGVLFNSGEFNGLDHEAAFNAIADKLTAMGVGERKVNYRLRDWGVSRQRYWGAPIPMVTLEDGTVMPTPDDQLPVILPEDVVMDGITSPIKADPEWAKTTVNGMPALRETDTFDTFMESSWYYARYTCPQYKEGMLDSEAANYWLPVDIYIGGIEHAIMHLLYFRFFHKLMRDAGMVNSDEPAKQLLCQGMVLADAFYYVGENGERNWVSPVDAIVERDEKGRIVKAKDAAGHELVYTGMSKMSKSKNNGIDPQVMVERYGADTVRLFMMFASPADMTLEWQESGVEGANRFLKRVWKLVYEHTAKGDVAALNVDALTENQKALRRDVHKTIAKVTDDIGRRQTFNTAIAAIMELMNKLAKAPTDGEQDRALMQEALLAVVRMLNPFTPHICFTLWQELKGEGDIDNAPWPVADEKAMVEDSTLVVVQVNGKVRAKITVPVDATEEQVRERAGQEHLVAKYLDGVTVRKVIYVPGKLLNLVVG
Isoleucyl-tRNA synthetase (IleRS), sequence (P00956 whole entry, looked up): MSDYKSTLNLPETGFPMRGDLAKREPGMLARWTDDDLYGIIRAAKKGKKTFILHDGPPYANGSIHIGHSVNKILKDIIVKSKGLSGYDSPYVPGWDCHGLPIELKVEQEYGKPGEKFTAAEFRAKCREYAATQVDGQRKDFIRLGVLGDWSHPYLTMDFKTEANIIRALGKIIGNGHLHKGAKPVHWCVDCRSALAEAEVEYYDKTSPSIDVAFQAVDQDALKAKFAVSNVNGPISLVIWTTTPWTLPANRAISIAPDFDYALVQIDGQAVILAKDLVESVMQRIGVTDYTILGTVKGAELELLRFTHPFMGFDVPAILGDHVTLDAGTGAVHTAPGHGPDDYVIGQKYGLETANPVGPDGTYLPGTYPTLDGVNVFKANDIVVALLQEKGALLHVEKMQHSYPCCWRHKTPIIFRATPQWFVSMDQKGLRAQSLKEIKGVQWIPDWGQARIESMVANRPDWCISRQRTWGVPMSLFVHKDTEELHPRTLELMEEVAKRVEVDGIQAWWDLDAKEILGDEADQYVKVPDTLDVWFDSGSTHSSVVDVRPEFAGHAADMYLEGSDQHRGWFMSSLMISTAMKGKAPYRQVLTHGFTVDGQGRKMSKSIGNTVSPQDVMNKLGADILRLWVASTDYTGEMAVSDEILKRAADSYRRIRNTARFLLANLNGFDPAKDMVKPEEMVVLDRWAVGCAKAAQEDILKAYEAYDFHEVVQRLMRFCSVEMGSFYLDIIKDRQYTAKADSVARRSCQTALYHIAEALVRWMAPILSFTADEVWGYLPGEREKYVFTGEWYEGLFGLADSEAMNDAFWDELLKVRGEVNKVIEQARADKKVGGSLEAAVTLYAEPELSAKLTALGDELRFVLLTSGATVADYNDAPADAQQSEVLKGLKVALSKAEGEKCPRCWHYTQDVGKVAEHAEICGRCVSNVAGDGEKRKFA

O=C(O)c1cn(C2CC2)c2cc(N3CCNCC3)c(F)cc2c1=O [Cinprofloxacin]
Reduction in burden from vehicle control, Bladder 72 hr (E. coli UT189; [5]): 2.74 Log10 cfu/g or mL | Reduction in burden from vehicle control, Kidney 72 hr (E. coli UT189; [5]): 4.12 Log10 cfu/g or mL | Reduction in burden from vehicle control, Urine 48 hr (E. coli UT189; [5]): 5.32 Log10 cfu/g or mL | Reduction in burden from vehicle control, Urine 72 hr (E. coli UT189; [5]): 4.76 Log10 cfu/g or mL

CC[C@H](C)[C@H](N)C(=O)N=S(N)(=O)c1cc2sccc2s1 (some centres unmarked) [ANASIA-138]
IC50 [1]: 383 nM | MIC [2, 6]: > 64 µg/mL | MIC [2, 7]: > 64 µg/mL | MIC [2, 8]: > 64 µg/mL | MIC [2, 9]: 16 µg/mL (≈ 48.3 µM) | MIC [2, 10]: > 64 µg/mL | MIC [2, 11]: > 64 µg/mL | IC50 at 24 h [3]: > 64 µg/mL

CN(C)c1cc(NC(=O)CNC(C)(C)C)c(O)c2c1C[C@H]1C[C@H]3[C@H](N(C)C)C(O)=C(C(N)=O)C(=O)[C@@]3(O)C(O)=C1C2=O [Tigecycline, tigecycline, reference compound]
Reduction in burden from vehicle control, Blood (E. coli ATCC 25922; [12]): 5.13 Log10 cfu/g or mL | Reduction in burden from vehicle control, Kidney (E. coli ATCC 25922; [12]): 5.62 Log10 cfu/g or mL | Reduction in burden from vehicle control, Spleen (E. coli ATCC 25922; [12]): 5.15 Log10 cfu/g or mL

CC(C)C[C@H](N)C(=O)N=[S@](N)(=O)c1scc(F)c1F.Cl [ANASIA-103-1]
Reduction in burden from vehicle control, Blood (E. coli ATCC 25922; [13]): 0.32 Log10 cfu/g or mL | Reduction in burden from vehicle control, Kidney (E. coli ATCC 25922; [13]): 1.26 Log10 cfu/g or mL | Reduction in burden from vehicle control, Spleen (E. coli ATCC 25922; [13]): 0.60 Log10 cfu/g or mL | Reduction in burden from vehicle control, Blood (E. coli ATCC 25922; [14]): 0.43 Log10 cfu/g or mL | Reduction in burden from vehicle control, Kidney (E. coli ATCC 25922; [14]): 1.28 Log10 cfu/g or mL | Reduction in burden from vehicle control, Spleen (E. coli ATCC 25922; [14]): 1.46 Log10 cfu/g or mL | Reduction in burden from vehicle control, Blood (E. coli ATCC 25922; [15]): 1.26 Log10 cfu/g or mL | Reduction in burden from vehicle control, Kidney (E. coli ATCC 25922; [15]): 1.66 Log10 cfu/g or mL | Reduction in burden from vehicle control, Spleen (E. coli ATCC 25922; [15]): 1.64 Log10 cfu/g or mL | Reduction in burden from vehicle control, Blood (E. coli ATCC 25922; [16]): 0.81 Log10 cfu/g or mL | Reduction in burden from vehicle control, Kidney (E. coli ATCC 25922; [16]): 1.59 Log10 cfu/g or mL | Reduction in burden from vehicle control, Spleen (E. coli ATCC 25922; [16]): 1.61 Log10 cfu/g or mL | Reduction in burden from vehicle control, Blood (E. coli ATCC 25922; [17]): 2.18 Log10 cfu/g or mL | Reduction in burden from vehicle control, Kidney (E. coli ATCC 25922; [17]): 3.06 Log10 cfu/g or mL | Reduction in burden from vehicle control, Spleen (E. coli ATCC 25922; [17]): 2.24 Log10 cfu/g or mL | IC50 [4]: 19.5 nM | MIC [2, 6]: 16 µg/mL | MIC [2, 8]: 1 µg/mL | MIC [2, 18]: 10.1 µg/mL | MIC [2, 9]: 1 µg/mL | MIC [2, 10]: 64 µg/mL | MIC [2, 11]: 64 µg/mL | IC50 at 24 h [3]: > 64 µg/mL | Reduction in burden from vehicle control, Bladder 72 hr (E. coli UT189; [19]): 1.28 Log10 cfu/g or mL | Reduction in burden from vehicle control, Kidney 72 hr (E. coli UT189; [19]): 0.93 Log10 cfu/g or mL | Reduction in burden from vehicle control, Urine 48 hr (E. coli UT189; [19]): 1.36 Log10 cfu/g or mL | Reduction in burden from vehicle control, Urine 72 hr (E. coli UT189; [19]): 0.11 Log10 cfu/g or mL | Reduction in burden from vehicle control, Bladder 72 hr (E. coli UT189; [20]): 2.08 Log10 cfu/g or mL | Reduction in burden from vehicle control, Kidney 72 hr (E. coli UT189; [20]): 2.28 Log10 cfu/g or mL | Reduction in burden from vehicle control, Urine 48 hr (E. coli UT189; [20]): 2.14 Log10 cfu/g or mL | Reduction in burden from vehicle control, Urine 72 hr (E. coli UT189; [20]): 2.71 Log10 cfu/g or mL | Reduction in burden from vehicle control, Bladder 72 hr (E. coli UT189; [21]): 1.49 Log10 cfu/g or mL | Reduction in burden from vehicle control, Kidney 72 hr (E. coli UT189; [21]): 1.25 Log10 cfu/g or mL | Reduction in burden from vehicle control, Urine 48 hr (E. coli UT189; [21]): 1.74 Log10 cfu/g or mL | Reduction in burden from vehicle control, Urine 72 hr (E. coli UT189; [21]): 2.64 Log10 cfu/g or mL

CC(C)C[C@H](N)C(=O)N=[S@](N)(=O)c1cc(Cl)cs1.Cl [ANASIA-124-1]
IC50 [4]: 21.3 nM | MIC [2, 6]: 8 µg/mL | MIC [2, 7]: 8 µg/mL | MIC [2, 8]: 0.25 µg/mL | MIC [2, 18]: 1.59 µg/mL | MIC [2, 10]: 16 µg/mL | MIC [2, 11]: 32 µg/mL | Reduction in burden from vehicle control, Bladder 72 hr (E. coli UT189; [22]): 1.24 Log10 cfu/g or mL | Reduction in burden from vehicle control, Kidney 72 hr (E. coli UT189; [22]): 1.60 Log10 cfu/g or mL | Reduction in burden from vehicle control, Urine 48 hr (E. coli UT189; [22]): 0.71 Log10 cfu/g or mL | Reduction in burden from vehicle control, Urine 72 hr (E. coli UT189; [22]): 0.66 Log10 cfu/g or mL | Reduction in burden from vehicle control, Bladder 72 hr (E. coli UT189; [23]): 1.38 Log10 cfu/g or mL | Reduction in burden from vehicle control, Kidney 72 hr (E. coli UT189; [23]): 2.40 Log10 cfu/g or mL | Reduction in burden from vehicle control, Urine 48 hr (E. coli UT189; [23]): 1.85 Log10 cfu/g or mL | Reduction in burden from vehicle control, Urine 72 hr (E. coli UT189; [23]): 1.21 Log10 cfu/g or mL

Reference: patent publication US12247004B2, “2-amino-N-(amino-oxo-aryl-lambda6-sulfanylidene)acetamide compounds and their therapeutic use” (Oxford Drug Design Limited, priority 2019, dated 2025)
